`COC(=O)CSc1ccc([N+](=O)[O-])cc1[N+](=O)[O-]` gave a log partition coefficient (logP) of 2.05.
For `COC(=O)CSc1ccccc1[N+](=O)[O-]` the value was 1.88.
`COC(=O)CS(=O)c1ccc(Cl)cc1[N+](=O)[O-]` (configuration not stated) yielded a log partition coefficient (logP) of 1.29.
With `COC(=O)CSc1ccc([N+](=O)[O-])cc1Cl` the figure was 2.26; with `CC(C)OC(=O)CS(=O)c1ccc(Cl)cc1[N+](=O)[O-]` (configuration not stated), 2.22.
In turn, `COC(=O)CS(=O)(=O)c1ccc([N+](=O)[O-])cc1` displayed a lipophilicity (logP) of 0.78.
For `CC(C)OC(=O)CSc1ccc(Cl)cc1[N+](=O)[O-]` the value was 3.
For `COC(=O)CS(=O)c1ccc([N+](=O)[O-])cc1Cl` (configuration not stated) the value was 1.35; for `CC(C)OC(=O)CS(=O)c1ccc([N+](=O)[O-])cc1` (configuration not stated), 1.64; for `CC(C)OC(=O)CS(=O)(=O)c1ccc([N+](=O)[O-])cc1Cl`, 2.4.
With `CC(C)OC(=O)CSc1ccc([N+](=O)[O-])cc1Cl` the figure was 3.2.
`COC(=O)CSc1ccc(Cl)cc1[N+](=O)[O-]`: the logP was determined as 2.24.
Regarding `CC(C)OC(=O)CSc1ccccc1[N+](=O)[O-]`, the log partition coefficient (logP) is 2.76.
`COC(=O)CS(=O)(=O)c1ccc([N+](=O)[O-])cc1Cl` returned a logP of 1.45.
Consider `COC(=O)CS(=O)(=O)c1ccccc1[N+](=O)[O-]`, for which the logP came to 0.78.
For `CC(C)OC(=O)CS(=O)(=O)c1ccc([N+](=O)[O-])cc1` the value was 1.8; for `COC(=O)CS(=O)c1ccccc1[N+](=O)[O-]` (configuration not stated), 0.74; for `CC(C)OC(=O)CS(=O)c1ccccc1[N+](=O)[O-]` (configuration not stated), 1.59.
For `CC(C)OC(=O)CSc1ccc([N+](=O)[O-])cc1` the value was 2.79.
For `CC(C)OC(=O)CS(=O)c1ccc([N+](=O)[O-])cc1[N+](=O)[O-]` (configuration not stated) the value was 1.61; for `COC(=O)CS(=O)(=O)c1ccc(Cl)cc1[N+](=O)[O-]`, 1.3.
In the case of `COC(=O)CS(=O)c1ccc([N+](=O)[O-])cc1` (configuration not stated), the logP was found to be 0.8.
With `CC(C)OC(=O)CS(=O)(=O)c1ccccc1[N+](=O)[O-]` the figure was 1.72.
For `COC(=O)CS(=O)c1ccc([N+](=O)[O-])cc1[N+](=O)[O-]` (configuration not stated) the value was 0.63; for `CC(C)OC(=O)CS(=O)(=O)c1ccc(Cl)cc1[N+](=O)[O-]`, 2.45; for `CC(C)OC(=O)CS(=O)c1ccc([N+](=O)[O-])cc1Cl` (configuration not stated), 2.01.
With `CC(C)OC(=O)CSc1ccc([N+](=O)[O-])cc1[N+](=O)[O-]` the figure was 2.81.

For orientation: logP means the decadic logarithm of the partition coefficient of the neutral form, usually between octanol and water.

Source of the values: the OPERA property sets (Mansouri et al. 2018).
